Source: ChEMBL document CHEMBL4339199 (ACS Med Chem Lett, 2019)
The source made the active and inactive calls. The rule behind the calls is not given here.

What was measured:
[1] = target: Tyrosine-protein kinase JAK1 (Homo sapiens, UniProt P23458); test: Inhibition of GST-tagged JAK1 (unknown origin) using fluoresceinated peptide as substrate measured after 3 hrs by electrophoresis method
[2] = target: T1, Tyrosine-protein kinase JAK3 (Homo sapiens, UniProt P52333); test: Inhibition of GST-tagged JAK3 (unknown origin) using fluoresceinated peptide as substrate measured after 3 hrs by electrophoresis method
T1 sequence (P52333 whole entry): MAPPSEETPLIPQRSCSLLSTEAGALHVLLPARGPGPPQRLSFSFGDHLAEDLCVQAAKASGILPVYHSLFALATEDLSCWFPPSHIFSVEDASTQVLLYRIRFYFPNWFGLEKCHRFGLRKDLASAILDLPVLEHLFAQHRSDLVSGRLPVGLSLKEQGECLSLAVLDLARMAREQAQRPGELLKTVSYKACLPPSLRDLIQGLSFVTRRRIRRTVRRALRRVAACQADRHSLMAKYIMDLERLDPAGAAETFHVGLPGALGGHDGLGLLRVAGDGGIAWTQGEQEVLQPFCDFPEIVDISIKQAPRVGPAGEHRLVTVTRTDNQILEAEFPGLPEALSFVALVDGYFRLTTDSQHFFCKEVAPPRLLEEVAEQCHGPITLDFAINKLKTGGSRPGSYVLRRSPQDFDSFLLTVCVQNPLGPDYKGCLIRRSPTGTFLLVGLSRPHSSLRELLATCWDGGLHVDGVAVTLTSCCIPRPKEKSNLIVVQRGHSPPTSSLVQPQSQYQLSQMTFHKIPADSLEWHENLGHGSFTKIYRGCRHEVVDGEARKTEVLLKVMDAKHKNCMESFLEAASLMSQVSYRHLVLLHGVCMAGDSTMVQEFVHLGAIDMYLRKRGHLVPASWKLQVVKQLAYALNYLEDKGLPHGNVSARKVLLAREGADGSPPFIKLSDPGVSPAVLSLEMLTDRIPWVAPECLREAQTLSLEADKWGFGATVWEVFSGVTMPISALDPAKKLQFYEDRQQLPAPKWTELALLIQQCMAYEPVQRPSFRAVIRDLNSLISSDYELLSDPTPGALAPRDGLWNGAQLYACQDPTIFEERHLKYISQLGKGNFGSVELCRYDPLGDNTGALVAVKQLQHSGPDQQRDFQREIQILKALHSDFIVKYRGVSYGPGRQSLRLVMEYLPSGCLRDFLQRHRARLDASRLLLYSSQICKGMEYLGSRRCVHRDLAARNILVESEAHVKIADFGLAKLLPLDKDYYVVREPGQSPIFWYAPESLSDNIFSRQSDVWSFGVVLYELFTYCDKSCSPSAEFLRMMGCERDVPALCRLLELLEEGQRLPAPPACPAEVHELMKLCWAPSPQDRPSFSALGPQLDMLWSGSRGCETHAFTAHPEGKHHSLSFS

[3] = target: Tyrosine-protein kinase JAK2 (Homo sapiens, UniProt O60674); test: Inhibition of GST-tagged JAK2 (unknown origin) using fluoresceinated peptide as substrate measured after 3 hrs by electrophoresis method
[4] = target: Non-receptor tyrosine-protein kinase TYK2 (Homo sapiens, UniProt P29597); test: Inhibition of […] TYK2 (unknown origin) using fluoresceinated peptide as substrate measured after 3 hrs by electrophoresis method
T-cell = test: Inhibition of IL2-induced human PBMC-derived T cell proliferation preincubated for 60 mins followed by IL-2 stimulation and measured after 3 days by [3H]thymidine incorporation based topcount method; type: functional
[5] = Solubility of the compound in water using amorphous compound; type: physicochemical; conditions: buffer
[6] = Cmax in mouse at 10 mg/kg, po; type: ADME, organism-based; design: dose 10 mg/kg, route oral; conditions: in vivo
[7] = Stability in human liver microsomes; type: ADME, Microsome
[8] = Octanol-water partition coefficient, log P of the compound at pH 6.5 by HPLC analysis; type: physicochemical
[9] = Cmax in mouse at 50 mg/kg, po administered as microsuspension formulation; type: ADME, organism-based; design: dose 50 mg/kg, route oral; conditions: in vivo
[10] = Stability in mouse liver microsomes; type: ADME, Microsome
[11] = Permeability of the compound by PAMPA; type: ADME
[12] = Time at which plasma concentration stays above in vitro IC50 for inhibition of IL2-induced IFNgamma production in CD3/CD28 antibody-stimulated human whole blood in mouse at 10 mg/kg, po; type: organism-based; conditions: in vivo
Blood = test: Inhibition of IL2-induced IFNgamma production in CD3/CD28 antibody-stimulated human whole blood measured after 18 hrs by ELISA; type: functional, tissue-based
[13] = Solubility of the compound in phosphate buffer using crystalline compound; type: physicochemical
[14] = Solubility of the compound in 5%EtOH/5%TPGS/90%PEG300 formulation; type: physicochemical
[15] = Stability in rat liver microsomes; type: ADME, Microsome
[16] = Aqueous solubility of the compound; type: physicochemical; conditions: buffer
[17] = Stability in mouse microsomes assessed as parent compound remaining measured after 10 mins; type: ADME, Microsome; conditions: read-out: Stability
[18] = Lipophilicity, log P of the compound; type: physicochemical; conditions: octanol/water
Mus musculus [19] = test: Antiinflammatory activity in DBA1 mouse model of collagen-induced inflammation assessed as reduction in rheumatoid arthritis score in paw administered daily via oral gavage for 21 days starting from 21 days post-immunization and measured 3 times every week following booster immunization; type: functional, organism-based
[20] = Prodrug conversion in DBA1 mouse assessed as 4-((2R,3R)-l,3-Dihydroxybutan-2-ylamino)-6-phenylpyrrolo [ 1,2-b]pyridazine-3 carboxamide formation at 140 mg/kg, po administered via gavage; type: ADME, organism-based; conditions: in vivo
[21] = AUC in mouse at 10 mg/kg, po; type: ADME, organism-based; conditions: in vivo
[22] = Solubility of the compound in water; type: physicochemical; conditions: buffer
[23] = AUC in mouse at 40 mg/kg, po; type: ADME, organism-based; conditions: in vivo
Mus musculus [24] = test: Antiinflammatory activity in DBA1 mouse model of collagen-induced inflammation assessed as reduction in rheumatoid arthritis score in paw at 6.6 mg/kg administered daily via oral gavage for 21 days starting from 21 days post-immunization and measured 3 times every week following booster immunization; type: functional, organism-based

Tyrosine-protein kinase JAK2, sequence (O60674 whole entry): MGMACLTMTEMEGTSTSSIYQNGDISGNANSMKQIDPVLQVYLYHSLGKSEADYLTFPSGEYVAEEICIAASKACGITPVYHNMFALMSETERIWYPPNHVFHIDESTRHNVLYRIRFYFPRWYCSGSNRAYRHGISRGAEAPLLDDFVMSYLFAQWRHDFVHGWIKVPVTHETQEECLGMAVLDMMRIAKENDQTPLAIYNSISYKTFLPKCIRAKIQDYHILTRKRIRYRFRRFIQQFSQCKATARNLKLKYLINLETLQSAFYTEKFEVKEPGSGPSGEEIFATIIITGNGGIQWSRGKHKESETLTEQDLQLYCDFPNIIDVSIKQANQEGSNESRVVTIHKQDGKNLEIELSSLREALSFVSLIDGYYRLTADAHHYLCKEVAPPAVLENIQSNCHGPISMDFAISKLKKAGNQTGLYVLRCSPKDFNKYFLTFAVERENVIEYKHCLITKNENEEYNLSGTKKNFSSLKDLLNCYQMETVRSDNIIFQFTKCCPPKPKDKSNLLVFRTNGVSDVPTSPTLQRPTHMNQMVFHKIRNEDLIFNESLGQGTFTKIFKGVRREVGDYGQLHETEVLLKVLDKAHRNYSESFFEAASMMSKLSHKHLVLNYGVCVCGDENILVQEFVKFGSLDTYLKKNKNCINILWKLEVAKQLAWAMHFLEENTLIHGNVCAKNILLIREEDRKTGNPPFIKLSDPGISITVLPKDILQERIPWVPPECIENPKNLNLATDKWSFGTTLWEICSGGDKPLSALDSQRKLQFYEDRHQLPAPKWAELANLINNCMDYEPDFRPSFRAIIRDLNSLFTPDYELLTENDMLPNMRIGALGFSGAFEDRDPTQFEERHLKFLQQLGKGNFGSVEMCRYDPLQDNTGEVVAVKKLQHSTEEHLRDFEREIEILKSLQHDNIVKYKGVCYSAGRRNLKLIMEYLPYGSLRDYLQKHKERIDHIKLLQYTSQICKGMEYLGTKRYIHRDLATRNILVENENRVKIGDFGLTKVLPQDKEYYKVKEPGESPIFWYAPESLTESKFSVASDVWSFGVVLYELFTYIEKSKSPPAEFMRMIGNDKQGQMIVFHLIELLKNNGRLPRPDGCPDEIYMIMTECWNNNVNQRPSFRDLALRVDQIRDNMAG
Tyrosine-protein kinase JAK1, sequence (P23458 whole entry): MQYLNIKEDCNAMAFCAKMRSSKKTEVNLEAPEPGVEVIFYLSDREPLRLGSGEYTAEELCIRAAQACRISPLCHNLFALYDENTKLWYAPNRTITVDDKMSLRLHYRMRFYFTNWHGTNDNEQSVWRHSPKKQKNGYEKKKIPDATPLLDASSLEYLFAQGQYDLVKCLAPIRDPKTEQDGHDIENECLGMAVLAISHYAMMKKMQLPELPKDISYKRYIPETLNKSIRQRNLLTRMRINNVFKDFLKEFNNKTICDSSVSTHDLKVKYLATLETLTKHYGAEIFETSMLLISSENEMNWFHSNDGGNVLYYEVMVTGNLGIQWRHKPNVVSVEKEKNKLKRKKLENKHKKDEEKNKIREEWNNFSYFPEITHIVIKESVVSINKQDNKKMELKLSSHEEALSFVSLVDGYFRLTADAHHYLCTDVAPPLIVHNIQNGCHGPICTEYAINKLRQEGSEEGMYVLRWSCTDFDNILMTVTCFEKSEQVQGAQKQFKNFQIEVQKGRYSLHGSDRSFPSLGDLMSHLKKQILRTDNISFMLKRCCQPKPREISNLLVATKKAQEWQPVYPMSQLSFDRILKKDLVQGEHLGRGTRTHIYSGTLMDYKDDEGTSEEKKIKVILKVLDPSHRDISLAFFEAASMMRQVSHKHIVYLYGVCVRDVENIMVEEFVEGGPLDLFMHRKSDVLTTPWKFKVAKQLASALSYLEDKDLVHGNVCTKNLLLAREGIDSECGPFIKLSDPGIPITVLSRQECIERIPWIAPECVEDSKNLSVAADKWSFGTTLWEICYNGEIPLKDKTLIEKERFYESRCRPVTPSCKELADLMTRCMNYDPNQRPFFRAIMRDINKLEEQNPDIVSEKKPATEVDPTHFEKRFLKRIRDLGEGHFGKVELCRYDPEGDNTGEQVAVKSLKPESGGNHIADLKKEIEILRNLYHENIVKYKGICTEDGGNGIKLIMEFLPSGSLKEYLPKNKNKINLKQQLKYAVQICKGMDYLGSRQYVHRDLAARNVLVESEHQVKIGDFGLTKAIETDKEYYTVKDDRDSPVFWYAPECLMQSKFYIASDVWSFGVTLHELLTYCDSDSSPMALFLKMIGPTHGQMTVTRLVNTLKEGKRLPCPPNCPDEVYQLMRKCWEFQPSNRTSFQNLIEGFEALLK
Non-receptor tyrosine-protein kinase TYK2, sequence (P29597 whole entry): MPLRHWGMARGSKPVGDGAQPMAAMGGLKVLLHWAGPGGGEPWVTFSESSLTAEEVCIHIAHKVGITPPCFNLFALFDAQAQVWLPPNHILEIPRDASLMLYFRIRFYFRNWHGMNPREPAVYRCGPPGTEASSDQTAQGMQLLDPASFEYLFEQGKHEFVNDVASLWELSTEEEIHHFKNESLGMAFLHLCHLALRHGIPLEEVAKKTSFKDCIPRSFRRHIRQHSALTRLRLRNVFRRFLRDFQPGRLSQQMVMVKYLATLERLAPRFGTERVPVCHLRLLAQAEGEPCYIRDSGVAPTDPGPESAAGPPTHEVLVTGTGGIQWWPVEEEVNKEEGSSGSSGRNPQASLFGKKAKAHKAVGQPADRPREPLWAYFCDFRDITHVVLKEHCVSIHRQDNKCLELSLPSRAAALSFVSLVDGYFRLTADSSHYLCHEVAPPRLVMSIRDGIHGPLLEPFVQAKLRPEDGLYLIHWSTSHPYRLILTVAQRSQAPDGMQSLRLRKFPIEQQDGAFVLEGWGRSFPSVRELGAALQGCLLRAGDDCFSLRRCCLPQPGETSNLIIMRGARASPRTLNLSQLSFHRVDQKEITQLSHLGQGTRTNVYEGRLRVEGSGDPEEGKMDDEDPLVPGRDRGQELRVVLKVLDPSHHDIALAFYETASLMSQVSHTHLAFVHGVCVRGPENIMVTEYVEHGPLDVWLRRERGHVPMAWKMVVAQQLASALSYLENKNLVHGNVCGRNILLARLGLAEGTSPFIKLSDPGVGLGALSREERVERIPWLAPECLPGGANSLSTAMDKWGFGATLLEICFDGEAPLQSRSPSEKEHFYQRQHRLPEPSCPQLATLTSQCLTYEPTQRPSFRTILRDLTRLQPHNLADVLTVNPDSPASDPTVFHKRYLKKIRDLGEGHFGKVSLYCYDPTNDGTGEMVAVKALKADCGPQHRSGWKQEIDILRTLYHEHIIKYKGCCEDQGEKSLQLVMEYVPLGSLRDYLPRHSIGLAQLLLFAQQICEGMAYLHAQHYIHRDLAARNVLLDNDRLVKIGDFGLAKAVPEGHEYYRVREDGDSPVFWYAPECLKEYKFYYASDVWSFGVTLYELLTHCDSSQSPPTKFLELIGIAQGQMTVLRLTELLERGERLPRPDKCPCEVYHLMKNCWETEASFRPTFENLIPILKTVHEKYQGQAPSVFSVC

IC50 [1] [nM]	IC50 [2] [nM]	IC50 [3] [nM]	IC50 [4] [nM]	IC50 (Blood) [µM]	Compound	IC50 (T-cell; Homo sapiens, T-cell) [nM]	also measured
38	13	370	210		C[C@H](O)[C@@H](CO)Nc1c(C(N)=O)cnn2cc(-c3ccccc3)cc12	870	
200	38		330		COc1ccc(-c2cc3c(NC(CO)CO)c(C(N)=O)cnn3c2)cn1	11000	
23	3	30	180	3.9	COc1ccc(-c2cc3c(N[C@H](CO)CC(C)C)c(C(N)=O)cnn3c2)cn1	190	
110	11	220	160	> 4	CC(C)CCNc1c(C(N)=O)cnn2cc(-c3ccccc3)cc12		solubility [16]: < 1 µg/mL; remaining at 10 min [17]: < 50%; logP [18]: 5.08
21	2	45	130	0.73	COc1ccc(-c2cc3c(NC(CO)[C@H](O)C4CC4)c(C(N)=O)cnn3c2)cn1 (stereo in doubt; 19)		IC50 (T-cell; t-cell): 500 nM
	2	57	27		COc1ccc(-c2cc3c(N[C@H](CO)[C@@H](C)O)c(C(N)=O)cnn3c2)cn1	370	logD [8]: 2.2
30	4	160	63	> 4	CC(C)CNc1c(C(N)=O)cnn2cc(-c3ccccc3)cc12		solubility [16]: < 1 µg/mL; remaining at 10 min [17]: < 50%; logP [18]: 3.94

Further lines, the compound ahead of its results:

Compound	IC50 [1] [nM]	IC50 [2] [nM]	IC50 [3] [nM]	IC50 [4] [nM]	IC50 (Blood) [µM]	IC50 (T-cell; Homo sapiens, T-cell) [nM]	also measured
C[C@@H](O)[C@@H](CO)Nc1c(C(N)=O)cnn2cc(-c3ccccc3)cc12	5		70	34	0.5	70	solubility [5]: Insoluble; Cmax [6]: > 3000 nM; Stability [7]: Stable; logD [8]: 2.42; Cmax [9]: 100 nM; Stability [10]: Stable; permeability [11]: Permeable; Time [12]: 3 h; solubility [13]: Insoluble; solubility [14]: Insoluble; Stability [15]: Stable
NC(=O)c1cnn2cc(-c3ccccc3)cc2c1NC1CCCC1	13	5	50	20	> 4		solubility [16]: < 1 µg/mL; remaining at 10 min [17]: < 50%
C[C@@H](O)[C@H](CO)Nc1c(C(N)=O)cnn2cc(-c3ccccc3)cc12	110	180	1700	510		1800	
COc1ccc(-c2cc3c(N[C@H](CO)CC4CC4)c(C(N)=O)cnn3c2)cn1	32	1	25	120	> 4	290	
C[C@@H](O)[C@@H](COP(=O)([O-])[O-])Nc1c(C(N)=O)cnn2cc(-c3ccccc3)cc12.[Na+].[Na+]							Activity (Mus musculus [19]): Dose-dependent effect; Drug metabolism [20]: Metabolite_Detected; AUC [21]: 1 µM·h; solubility [22]: Soluble; AUC [23]: 6 µM·h
C[C@@H]1CCN(C(=O)CC#N)C[C@@H]1N(C)c1ncnc2[nH]ccc12							Activity (Mus musculus [24]): Active
CC(C)Nc1c(C(N)=O)cnn2cc(-c3ccccc3)cc12	40	15	190	150	> 4		solubility [16]: < 1 µg/mL; remaining at 10 min [17]: < 50%
C[C@H](O)[C@H](CO)Nc1c(C(N)=O)cnn2cc(-c3ccccc3)cc12	180	160	1800	1300		2000	
COc1ccc(-c2cc3c(NC(CO)[C@H](O)C4CC4)c(C(N)=O)cnn3c2)cn1 (stereo in doubt; 18)	620	100	1400	2000			IC50 (T-cell; t-cell): 4800 nM
CC(C)(C)CNc1c(C(N)=O)cnn2cc(-c3ccccc3)cc12	33	8	110	70	> 4		solubility [16]: < 1 µg/mL; remaining at 10 min [17]: < 50%
